Source: ChEMBL document CHEMBL3751749, “Identification of new hit scaffolds by [sequence]-guided virtual screening” (Medchemcomm, 2015)
The source made the active and inactive calls. No cut-off for these calls is given here.

Columns and labels:
[1] = target: T1, Cyclin-dependent kinase 2 (Homo sapiens, UniProt P24941); experiment: Binding affinity to human CDK2 by isothermal titration calorimetric analysis
[2] = target: T1, Cyclin-dependent kinase 2; experiment: Binding affinity to N-terminal His-tagged human CDK2 expressed in Escherichia coli BL21-AI by STD-NMR analysis
CDK2/Cyclin A2 = CDK2/Cyclin A2 (Homo sapiens, UniProt P24941); experiment: Inhibition of recombinant full-length human Cdk2/cyclin A using histone H1 as substrate incubated for 120 mins in presence of 33-P ATP by kinase phosphorylation assay; assay type: protein-complex assay
[3] = target: T2, CDK2/Cyclin A2 (Homo sapiens) (UniProt P24941+P20248); experiment: Inhibition of recombinant full-length human Cdk2/cyclin A assessed as enzyme activity using histone H1 as substrate at 100 uM incubated for 120 mins in presence of 33-P ATP by kinase phosphorylation assay; assay type: protein-complex assay; parameters: scale not given: the % may be the effect or the level left
Homo sapiens [4] = species: Homo sapiens; experiment: Inhibition of human PKA assessed as enzyme activity using PKA peptide as substrate at 100 uM incubated for 120 mins in presence of 33-P ATP by kinase phosphorylation assay; parameters: scale not given: the % may be the effect or the level left
[5] = target: T3, Cyclin-dependent kinase 2/cyclin E1 (Homo sapiens) (UniProt P24864+P24941); experiment: Inhibition of recombinant full-length human Cdk2/cyclin E assessed as enzyme activity using histone H1 as substrate at 100 uM incubated for 120 mins in presence of 33-P ATP by kinase phosphorylation assay; assay type: protein-complex assay; parameters: scale not given: the % may be the effect or the level left
[6] = target: T2, CDK2/Cyclin A2 (Homo sapiens); experiment: Inhibition of recombinant full-length human Cdk2/cyclin A assessed as enzyme activity using histone H1 as substrate at 5 uM incubated for 120 mins in presence of 33-P ATP by kinase phosphorylation assay; assay type: protein-complex assay; parameters: scale not given: the % may be the effect or the level left
Homo sapiens [7] = species: Homo sapiens; experiment: Inhibition of human PKA assessed as enzyme activity using PKA peptide as substrate at 5 uM incubated for 120 mins in presence of 33-P ATP by kinase phosphorylation assay; parameters: scale not given: the % may be the effect or the level left
[8] = target: ALK tyrosine kinase receptor (Homo sapiens) (UniProt Q9UM73); experiment: Inhibition of human ALK assessed as enzyme activity using pEY as substrate at 5 uM incubated for 120 mins in presence of 33-P ATP by kinase phosphorylation assay; parameters: scale not given: the % may be the effect or the level left
ALK tyrosine kinase receptor (Homo sapiens), sequence (Q9UM73 19-1620 limits assumed): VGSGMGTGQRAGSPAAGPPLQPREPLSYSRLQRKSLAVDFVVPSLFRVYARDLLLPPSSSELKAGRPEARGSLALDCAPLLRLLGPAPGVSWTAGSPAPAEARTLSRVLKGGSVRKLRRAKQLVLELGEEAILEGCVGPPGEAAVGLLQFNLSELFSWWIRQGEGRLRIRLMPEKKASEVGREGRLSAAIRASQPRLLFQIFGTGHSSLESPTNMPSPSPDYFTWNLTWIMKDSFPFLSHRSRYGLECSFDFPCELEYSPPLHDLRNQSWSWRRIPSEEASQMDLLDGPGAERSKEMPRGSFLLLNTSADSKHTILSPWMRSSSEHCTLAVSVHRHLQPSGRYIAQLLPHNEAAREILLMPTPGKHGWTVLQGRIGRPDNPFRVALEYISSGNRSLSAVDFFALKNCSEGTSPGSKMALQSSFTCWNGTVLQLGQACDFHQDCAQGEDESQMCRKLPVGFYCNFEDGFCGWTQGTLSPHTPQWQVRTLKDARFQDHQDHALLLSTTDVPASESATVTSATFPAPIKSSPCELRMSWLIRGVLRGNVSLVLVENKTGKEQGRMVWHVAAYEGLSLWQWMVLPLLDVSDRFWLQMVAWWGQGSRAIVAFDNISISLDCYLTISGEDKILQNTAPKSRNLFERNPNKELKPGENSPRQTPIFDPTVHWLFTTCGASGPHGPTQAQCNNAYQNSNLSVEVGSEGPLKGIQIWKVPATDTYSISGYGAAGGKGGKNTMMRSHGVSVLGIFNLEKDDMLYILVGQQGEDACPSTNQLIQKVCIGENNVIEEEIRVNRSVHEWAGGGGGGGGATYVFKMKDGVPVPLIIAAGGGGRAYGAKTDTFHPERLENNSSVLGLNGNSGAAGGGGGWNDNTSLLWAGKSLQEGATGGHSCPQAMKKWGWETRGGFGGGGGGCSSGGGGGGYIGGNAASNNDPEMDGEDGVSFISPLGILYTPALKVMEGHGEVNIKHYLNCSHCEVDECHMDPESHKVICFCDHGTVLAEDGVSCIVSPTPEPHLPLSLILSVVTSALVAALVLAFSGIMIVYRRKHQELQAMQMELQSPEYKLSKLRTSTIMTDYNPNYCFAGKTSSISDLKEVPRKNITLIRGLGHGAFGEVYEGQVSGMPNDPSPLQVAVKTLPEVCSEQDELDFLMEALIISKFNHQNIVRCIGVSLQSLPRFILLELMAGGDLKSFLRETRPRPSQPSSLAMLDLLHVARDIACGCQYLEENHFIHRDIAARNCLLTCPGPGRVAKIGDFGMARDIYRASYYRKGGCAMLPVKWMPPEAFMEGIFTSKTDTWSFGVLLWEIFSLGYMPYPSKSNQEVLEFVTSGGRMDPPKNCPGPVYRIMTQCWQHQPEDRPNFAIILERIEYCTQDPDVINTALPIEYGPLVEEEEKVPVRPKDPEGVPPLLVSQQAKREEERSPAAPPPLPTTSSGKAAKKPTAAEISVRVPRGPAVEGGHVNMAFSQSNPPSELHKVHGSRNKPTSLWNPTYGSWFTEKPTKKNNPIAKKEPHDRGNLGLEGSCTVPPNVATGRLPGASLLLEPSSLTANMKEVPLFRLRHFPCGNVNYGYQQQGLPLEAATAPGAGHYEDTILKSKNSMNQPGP

[9] = target: T3, Cyclin-dependent kinase 2/cyclin E1 (Homo sapiens); experiment: Inhibition of recombinant full-length human Cdk2/cyclin E assessed as enzyme activity using histone H1 as substrate at 5 uM incubated for 120 mins in presence of 33-P ATP by kinase phosphorylation assay; assay type: protein-complex assay; parameters: scale not given: the % may be the effect or the level left

For `CNc1ncnc2ccc([N+](=O)[O-])cc12`, the Kd [1] was 208 µM and the Activity [2] was “Active”.

`O=S(=O)(c1cccc2cnccc12)N1CCCNCC1` was tested, and the Activity [2] was “Active”.

`c1ccc(CNc2ncnc3[nH]cnc23)cc1` was tested, and the Activity [2] was “Active”.

For `Nc1ncnc2c1ncn2[C@@H]1O[C@H](CO)[C@@H](O)[C@H]1O` [ADENOSINE], the Kd [1] was 184 µM.

`Cc1ccc(Cn2cc(-n3c(-c4ccc(Cn5cccn5)cc4)n[nH]c3=S)cn2)cc1` was tested, and the Activity [2] was “inactive”.

In the case of `CC(C)=CCNc1ncnc2nc[nH]c12`, the Kd [1] is reported as 35 µM.

For `Cc1ccc(Cn2nccc2-n2c(-c3cc(C)n(C)n3)n[nH]c2=S)cc1`, the IC50 (CDK2/Cyclin A2) was 1000 µM, the Activity [3] was 69% and the Activity [2] was “Active”. It also gave an Activity (Homo sapiens [4]) of 99% and an Activity [5] of 96%.

For `Cc1ccc(Cn2cc(-n3c(-c4ccc(Cn5cc(Cl)cn5)cc4)n[nH]c3=S)cn2)cc1`, the Activity [2] was “inactive”.

With `CC(C)=CCNc1ncnc2[nH]cnc12` the Activity [2] was “Active”.

`Cc1ccc(Cn2cc(-n3c(-c4ccc(Cn5nc(C)c(Cl)c5C)o4)n[nH]c3=S)cn2)cc1` was tested, and the Activity [2] was “inactive”.

With `Cc1nc2[nH]n(-c3ccccc3)c(=O)c2c2c1c(=O)oc1ccc(Br)cc12` the IC50 (CDK2/Cyclin A2) was 2.6 µM, the Activity [6] was 35% and the Activity (Homo sapiens [7]) was 115%. It also gave an Activity [8] of 87% and an Activity [9] of 95%.

`c1ccc(CNc2ncnc3nc[nH]c23)cc1` [6-BENZYLAMINOPURINE] was tested, and the Kd [1] was 62 µM.

For `N=C(N)NCCNS(=O)(=O)c1cccc2cnccc12`, the Kd [1] was 286 µM and the Activity [2] was “Active”.

In the case of `Cc1ccc(Cn2cc(-n3c(-c4ccc(Cn5nc(C)cc5C)o4)n[nH]c3=S)cn2)cc1`, the Activity [2] is reported as “inactive”.
